≈ marks a conversion by molar mass, not a printed value.
Key:
[1] = hydroxy radical scavenging, orthophenanthroline Fe2+ oxidation method; format: biochemical
Protocol: The first extract of lingonberry from Example 7, containing 5.2 wt % of anthocyanin, 22.3 wt % of proanthocyanin, and 0.5 wt % of resveratrol, was dissolved in double-distilled water and diluted into solutions in serial concentrations of 0.5, 0.25, 0.125, 0.0625, 0.03125, 0.015625, and 0.0078125 mg/ml. Ascorbic acid was likewise diluted to serial concentrations of 2, 1, 0.5, 0.25, 0.125, and 0.0625 mg/ml. The anti-oxidation effect of lingonberry extracts was confirmed by determining the hydroxyl radical (.OH) and the scavenging effect of the test drug on the hydroxy radical using the orthophenanthroline Fe^2+ oxidation method.
The total reaction volume was 4.7 ml, and thus the final concentrations of ascorbic acid solution were 0.851, 0.426, 0.213, and 0.106 mg/ml, while the final concentrations of lingonberry extract were 0.106, 0.053, 0.027, 0.013 mg/ml. Measurements were obtained for five samples in each group, and the scavenging rates of .OH were calculated and averaged. In order to verify the reliability of this method, ascorbic acid, a known .OH scavenging agent was used as a positive control when evaluating the scavenging effect of the lingonberry extract on hydroxy radicals during the experiment.
In the reaction system of these experiments, the aqueous solution of lingonberry extract could bind with hydroxy radicals generated in the Fenton reaction, thus reducing oxidation of Fe^2+ by hydroxy radicals. Its effect on scavenging hydroxy radicals was evaluated by determining the absorbance value of the reaction system.

[2] = tested on: yeast; conditions: by activating Sir2 enzymatic expression; cited from earlier work

Which “•OH scavenging rate (d)” value ([1]; final concentration 0.106 mg/ml) does the source give for `O=C1O[C@H]([C@@H](O)CO)C(O)=C1O` [ascorbic acid] here?
The value was 24.44 ± 2.32.

And the “•OH scavenging rate (d)” value ([1]; final concentration 0.213 mg/ml)?
Its value is 25.55 ± 2.10.

What about the “•OH scavenging rate (d)” value ([1]; final concentration 0.426 mg/ml) of the same compound?
The value was 40.49 ± 1.33.

And the “•OH scavenging rate (d)” value ([1]; final concentration 0.851 mg/ml)?
Its value is 91.92 ± 0.77.

And the “IC50, hydroxy radical scavenging” value ([1]; orthophenanthroline Fe2+ oxidation method)?
Its value is 307.8 µg/mL (≈ 1750 µM).

Which “increase of life span” value [2] does the source give for `Oc1ccc(C=Cc2cc(O)cc(O)c2)cc1` [resveratrol] here?
Its value is “about 70%”.

From patent US7939111B2, “Lingonberry extract, methods of preparing, and uses thereof” (Beijing Gingko-Group Biological Technology Co., Ltd., priority 2007, dated 2011)
